Test results taken from US20170168073A1, “CHALCONE-UREA DERIVATIVES AS INSULIN SENSORS” (Agency for Science, Technology and Research, priority 2013, published 2017).

Assays:
insulin = insulin (Homo sapiens, UniProt P01308); test: Fluorescence response of CLU compounds to insulin; format: binding
Procedure: All the reagents and solvents were purchased from Aldrich, Alfa and Acros organics and used without further purification. All reactions were performed in oven-dried glassware under a positive pressure of nitrogen. Analytical TLC was carried out on Merck 60 F254 silica gel plate (0.25 mm layer thickness) and visualization was done with UV light. Column chromatography was performed on Merck 60 silica gel (230-400 mesh). NMR spectra were recorded on a Bruker Avance 300 NMR spectrometer. Chemical shifts are reported as 6 in units of parts per million (ppm) and coupling constants are reported as a J value in Hertz (Hz). Mass of all the compounds was determined by LC-MS of Agilent Technologies with an electrospray ionization source. Spectroscopic measurements were performed on a fluorometer and UV/VIS instrument, Synergy 4 of bioteck company and Gemini XS fluorescence plate reader. The slit width was 1 nm for both excitation and emission.
The present invention includes the synthesis of fluorescent chalcone-urea library (CLU), which was prepared on solid support. The CLU library was screened against four different concentrations of insulin (0.2, 0.1, 0.05 and 0.025 mg/mL) in HEPES buffer (20 mM, pH=7.4). Based on fluorescent intensity, 5 hits with more than 50-fold increase were selected (Table 2). CLU-381 was further derivatized due to the synthetic convenience to render 8 derivatives (Table 3).

serum albumin = test: Selectivity of fluorescence response to insulin over serum albumins (BSA, HSA, HSA lipid free); format: binding; conditions: over serum albumin (BSA, HSA, HSA lipid free; FIG. 1c)
Description: FIG. 1c is a graph showing the selectivity of Insulin Green to insulin over bovine serum albumin (BSA), human serum albumin (HSA) and HSA lipid free.

Sequence of insulin (P01308 25-54 limits assumed, species assumed): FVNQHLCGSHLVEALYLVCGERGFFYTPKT
Sequence of insulin (P01308 90-110 limits assumed, species assumed): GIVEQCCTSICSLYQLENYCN

- fluorescent increase to insulin (insulin; 200 μg/mL insulin (FIG. 1a)): 94 fold
- responsiveness to insulin among the 8 CLU-381 derivatives (insulin; 8 derivatives tested against insulin): most responsive compound
- selectivity for insulin over other proteins (serum albumin): good selectivity over other proteins
SMILES: COc1ccc(CNC(=O)Nc2ccc(C(=O)/C=C/c3ccc(N(CCO)CCO)cc3)cc2)cc1 [Insulin Green]
